Our source for the EC50 values is patent US8445430B2, “Cyclic carboxamide compounds and analogues thereof as of hepatitis C virus” (Achillion Pharmaceuticals, Inc., priority 2008, dated 2013).

The EC50 is the concentration at which the effect is half-maximal.

The subject of this test is HCV replicon in Huh-7 cells. Kind of test: HCV replicon assay (NPT ELISA) for inhibition of HCV replication. Particulars: Hepatitis C virus, Huh-7, 72 h, HCV replicon-containing Huh-7 cells, three days incubation. The class given is cell-based. The protocol: Compounds claimed herein are tested for the ability to inhibit viral replication of the Hepatitis C replicon in cultured cells in which the HCV replicon construct has been incorporated. The HCV replicon system was described by Bartenschlager, et. al (Science, 285, pp. 110-113 (1999)). The replicon system is predictive of in vivo anti-HCV activity; compounds that are active in humans uniformly evidence activity in the replicon assay.
In this assay HCV replicon containing cells are treated with different concentrations of the test compound to ascertain the ability of the test compound to suppress replication of the HCV replicon. As a positive control, HCV replicon-containing cells are treated with different concentrations of interferon alpha, a known inhibitor of HCV replication. The replicon assay system includes Neomycin Phosphotransferase (NPT) as a component of the replicon itself in order to detect the transcription of replicon gene products in the host cell. Cells in which the HCV replicon is actively replicating have high levels of NPT; the level of NPT is proportional to HCV replication. […] The NPT level of each sample is measured using a captured ELISA.
A protocol for testing compounds for the ability to inhibit viral replication of the Hepatitis C replicon cultured cells in which the replicon construct has been incorporated, follows.
The HCV replicon contains, 5′-3′, the HCV-IRES, the neomycin phosphotransferase (neo) gene, the IRES of encephalomyocarditis virus, which directs translation of HCV sequences NS3 to NS5B, and the 3′-NTR. The sequence of the HCV replicon has been deposited in GenBank (Accession no. AJ242652).
The replicon is transfected into Huh-7 cells using standard methods such as electroporation.
The equipment and materials include, but are not limited to, Huh-7 HCV replicon-containing cells, maintenance media (DMEM (Dulbecco's modified Eagle media) supplemented with 10% FBS, L-glutamine, non-essential amino acids, penicillin (100 units/ml), streptomycin (100 micrograms/ml), and 500 micrograms/ml of Geneticin (G418), screening media (DMEM supplemented with 10% FBS, L-glutamine, non-essential amino acids, penicillin (100 units/ml) and streptomycin (100 micrograms/ml)), 96 well tissue culture plates (flat bottom), 96 well plates (U bottom for drug dilution), Interferon alpha for positive control, fixation reagent (such as methanol:acetone), primary antibody (rabbit anti-NPTII), secondary antibody: Eu-N11, and enhancement solution.
HCV replicon-containing cells support high levels of viral RNA replicon replication when their density is suitable. Over-confluency causes decreased viral RNA replication. Therefore, cells must be kept growing in log phase in the presence of 500 micrograms/ml of G418. Generally, cells should be passed twice a week at 1: 4-6 dilution. Cell maintenance is conducted as follows:
HCV replicon-containing cells are examined under a microscope to ensure that cells growing well. Cells are rinsed once with PBS and 2 ml trypsin is added. The cell/trypsin mixture is incubated at 37° C. in a CO2 incubator for 3-5 minutes. After incubation 10 ml of complete media is added to stop the trypsinization reaction. Cells are blown gently, put into a 15 ml tube, and spun at 1200 rpm for 4 minutes. The trypsin/medium solution is removed. Medium (5 ml) is added and the cells are mixed carefully. The cells are counted.
The cells are then seeded onto 96-well plates at a density of 6000-7500 cells/100 microliters/well (6-7.5×10^5 cells/10 ml/plate). The plates are then incubated at 37° C. in a 5% CO2 incubator.
Cells are examined under a microscope approximated 24 hours after seeding and prior to adding drugs. If counting and dilution were performed correctly, cells are 60-70% confluent and nearly all cells should attach and spread evenly in the well.
HCV replicon-containing cells are rinsed with once PBS once; 2 mls of trypsin are then added. Cells are incubated at 37° C. in a 5% CO2 incubator for 3-5 minutes. […]

Read-outs that look alike come from different tables or passages of the source. Some results are limits rather than exact numbers.

`COc1ccc2c(O[C@@H]3C[C@H]4C(=O)N[C@]5(C(=O)NS(=O)(=O)C6CC6)C[C@H]5/C=C\CCCC(=O)N[C@@H](CC(=O)OC(C)(C)C)C(=O)N4C3)cc(-c3nc(C(C)C)cs3)nc2c1C` [Compound 16, tert-butyl 2-((2R,6S,14aR,16aS,Z)-14a-(cyclopropylsulfonylcarbamoyl)-2-(2-(4-isopropyithiazol-2-yl)-7-methoxy-8-methylquinolin-4-yloxy)-5,8,16-trioxo-1,2,3,5,6,7,8,9,10,11,13a,14,14a,15,16,16a-hexadecahydrocyclopropa[n]pyrrolo [2,1-c][1,4,7]triazacyclopentadecin-6-yl)acetate] showed an EC50 not above 10000 nM. For the same molecule, the EC50 (read-out: EC50) is less than 1000 nM.

For `COc1ccc2c(O[C@@H]3C[C@H]4C(=O)N[C@@]5(C(=O)NS(=O)(=O)C6CC6)C[C@@H]5/C=C\CCCC(=O)N[C@H](C(C)(C)C)C(=O)N4C3)cc(-c3ccccc3)nc2c1` [Compound 9, (2R,6R,13aR,14aS,16aS,Z)-6-tert-butyl-N-(cyclopropylsulfonyl)-2-(7-methoxy-2-phenylquinolin-4-yloxy)-5,8,16-trioxo-1,2,3,5,6,7,8,9,10,11,13a,14,14a,15,16,16a-hexadecahydrocyclopropa[n]pyrrolo[2,1-c] [1,4,7]triazacyclopentadecine-14a-carboxamide], for the setting “read-out: EC50”, the EC50 was less than 1000 nM.

On to `COc1ccc2c(O[C@@H]3C[C@H]4C(=O)N[C@]5(C(=O)NS(=O)(=O)C6CC6)C[C@H]5/C=C\CCCC(=O)N[C@H](C(C)(C)C)C(=O)N4C3)cc(-c3ccccc3)nc2c1` [Compound 5, (2R,6R,13aS,14aR,16aS,Z)-6-tert-butyl-N-(cyclopropylsulfonyl)-2-(7-methoxy-2-phenylquinolin-4-yloxy)-5,8,16-trioxo-1,2,3,5,6,7,8,9,10,11,13a,14,14a,15,16,16a-hexadecahydrocyclopropa[n]pyrrolo[2,1-c] [1,4,7]triazacyclopentadecine-14a-carboxamide], for which the EC50 (read-out: EC50) was more than 10000 nM.

Consider `CCOC(=O)[C@@]12C[C@@H]1/C=C\CCCC(=O)N[C@@H](C(C)(C)C)C(=O)N1C[C@H](Oc3cc(-c4ccccc4)nc4cc(OC)ccc34)C[C@H]1C(=O)N2` [Compound 1, (2R,6S,13aR,14aR,16aS,Z)-ethyl 6-tert-butyl-2-(7-methoxy-2-phenylquinolin-4-yloxy)-5,8,16-trioxo-1,2,3,5,6,7,8,9,10,11,13a,14,14a,15,16,16a-hexadecahydrocyclopropa[n]pyrrolo[2,1-c] [1,4,7]triazacyclopentadecine-14a-carboxylate], for which the EC50 (read-out: EC50) is more than 10000 nM.

With `COC(=O)C[C@@H]1NC(=O)CCC/C=C\[C@@H]2C[C@@]2(C(=O)NS(=O)(=O)C2CC2)NC(=O)[C@@H]2C[C@@H](Oc3cc(-c4ccccc4)nc4cc(OC)ccc34)CN2C1=O` [Compound 12, methyl 2-((2R,6S,14aR,16aS,Z)-14a-(cyclopropylsulfonylcarbamoyl)-2-(7-methoxy-2-phenylquinolin-4-yloxy)-5,8,16-trioxo-1,2,3,5,6,7,8,9,10,11,13a,14,14a,15,16,16a-hexadecahydrocyclopropa[n]pyrrolo[2,1-c] [1,4,7]triazacyclopentadecin-6-yl)acetate], where the note is “read-out: EC50”, the EC50 lay in the range of 1000 to 10000 nM.

Regarding `COc1ccc2c(O[C@@H]3C[C@H]4C(=O)N[C@]5(C(=O)NS(=O)(=O)C6CC6)C[C@H]5/C=C\CCCC(=O)N[C@@H](CC(=O)N5CCCCC5)C(=O)N4C3)cc(-c3ccccc3)nc2c1` [Compound 15, (2R,6S,14aR,16aS,Z)-N-(cyclopropylsulfonyl)-2-(7-methoxy-2-phenylquinolin-4-yloxy)-5,8,16-trioxo-6-(2-oxo-2-(piperidin-1-yl)ethyl)-1,2,3,5,6,7,8,9,10,11,13a,14,14a,15,16,16a hexadecahydrocyclopropa[n]pyrrolo [2,1-c][1,4,7]triazacyclopentadecine-14a-carboxamide], the EC50 (read-out: EC50) was less than 1000 nM.

Consider `COc1ccc2c(O[C@@H]3C[C@H]4C(=O)N[C@]5(C(=O)NS(=O)(=O)C6CC6)C[C@H]5/C=C\CCCC(=O)N(C)[C@@H](C(C)(C)C)C(=O)N4C3)cc(-c3ccccc3)nc2c1` [Compound 10, (2R,6S,13aS,14aR,16aS,Z)-6-tert-butyl-N-(cyclopropylsulfonyl)-2-(7-methoxy-2-phenylquinolin-4-yloxy)-7-methyl-5,8,16-trioxo-1,2,3,5,6,7,8,9,10,11,13a,14,14a,15,16,16a-hexadecahydrocyclopropa[n]pyrrolo[2,1-c] [1,4,7]triazacyclopentadecine-14a-carboxamide], for which, where the note is “read-out: EC50”, the EC50 was more than 10000 nM.

On to `COc1ccc2c(O[C@@H]3C[C@H]4C(=O)N[C@]5(C(=O)NS(=O)(=O)C6CC6)C[C@H]5/C=C\CCCC(=O)N(C)CC(=O)N4C3)cc(-c3nc(C(C)C)cs3)nc2c1C` [Compound 18, (2R,14aR,16aS,Z)-N-(cyclopropylsulfonyl)-2-(2-(4-isopropyithiazol-2-yl)-7-methoxy-8-methylquinolin-4-yloxy)-7-methyl-5,8,16-trioxo-1,2,3,5,6,7,8,9,10,11,13a,14,14a,15,16,16a-hexadecahydrocyclopropa[n]pyrrolo[2,1-c] [1,4,7]triazacyclopentadecine-14a-carboxamide], for which the EC50 (read-out: EC50) is less than 1000 nM.

For `COc1ccc2c(O[C@@H]3C[C@H]4C(=O)NC5(C(=O)NS(=O)(=O)C6CC6)CC5/C=C\CCCC(=O)N[C@@H](C(C)(C)C)C(=O)N4C3)cc(-c3ccccc3)nc2c1` (stereo partly drawn) [Compound 4, (2R,6S,16aS,Z)-6-tert-butyl-N-(cyclopropylsulfonyl)-2-(7-methoxy-2-phenylquinolin-4-yloxy)-5,8,16-trioxo-1,2,3,5,6,7,8,9,10,11,13a,14,14a,15,16,16a-hexadecahydrocyclopropa[n]pyrrolo[2,1-c] [1,4,7]triazacyclopentadecine-14a-carboxamide], the EC50 (read-out: EC50) was 1000 to 10000 nM.

As for `COC(=O)CC1NC(=O)CCC/C=C\[C@@H]2C[C@@]2(C(=O)NS(=O)(=O)C2CC2)NC(=O)[C@@H]2C[C@@H](Oc3cc(-c4ccccc4)nc4cc(OC)ccc34)CN2C1=O` (stereo partly drawn) [Compound 13, methyl 2-((2R,14aR,16aS,Z)-14a-(cyclopropylsulfonylcarbamoyl)-2-(7-methoxy-2-phenylquinolin-4-yloxy)-5,8,16-trioxo-1,2,3,5,6,7,8,9,10,11,13a,14,14a,15,16,16a-hexadecahydrocyclopropa[n]pyrrolo[2,1-c] [1,4,7]triazacyclopentadecin-6-yl)acetate], the EC50 (read-out: EC50) was in the range of 1000 to 10000 nM.

For the molecule `COc1ccc2c(O[C@@H]3C[C@H]4C(=O)N[C@]5(C(=O)NS(=O)(=O)C6CC6)C[C@H]5/C=C\CCCC(=O)N[C@@H](C(C)(C)C)C(=O)N4C3)cc(-c3nc(C(C)C)cs3)nc2c1C` [Compound 19, (2R,6S,14aR,16aS,Z)-6-tert-butyl-N-(cyclopropylsulfonyl)-2-(2-(4-isopropyithiazol-2-yl)-7-methoxy-8-methylquinolin-4-yloxy)-5,8,16-trioxo-1,2,3,5,6,7,8,9,10,11,13a,14,14a,15,16,16a-hexadecahydrocyclopropa[n]pyrrolo[2,1-c] [1,4,7]triazacyclopentadecine-14a-carboxamide], the EC50 (read-out: EC50) lay within 1000 to 10000 nM.

For `COc1ccc2c(O[C@@H]3C[C@H]4C(=O)N[C@]5(C(=O)NS(=O)(=O)C6CC6)C[C@H]5/C=C\CCCC(=O)N[C@@H](CC(=O)N5CCCC(F)(F)C5)C(=O)N4C3)cc(-c3nc(C(C)C)cs3)nc2c1C` [Compound 17, (2R,6S,14aR,16aS,Z)-N-(cyclopropylsulfonyl)-6-(2-(3,3-difluoropiperidin-1-yl)-2-oxoethyl)-2-(2-(4-isopropylthiazol-2-yl)-7-methoxy-8-methylquinolin-4-yloxy)-5,8,16-trioxo-1,2,3,5,6,7,8,9,10,11,13a,14,14a, 15,16,16a-hexadecahydrocyclopropa[n] pyrrolo[2,1-c][1,4,7]triazacyclopenta-decine-14a-carboxamide], the EC50 (read-out: EC50) is less than 1000 nM.
